≈ marks a conversion by molar mass, not a printed value. Read-outs that look alike come from different tables or passages of the source.
Tests used:
[1] = test system: C. albicans; test: Antifungal activities, MIC/MFC; format: cell-based; conditions: C. albicans; for MIC: Table 2, 1st value in brackets, read-out: minimum inhibitory concentration (MIC)
Description: (§1) A similar sequence of reactions was carried out using lysine dicholamide in place of cholic acid afforded VJ-1147 of Table 2. To assess the antifungal properties of the diwalled VJ-1138 (Table 2) and 2a of Table 3, their in vitro activities were examined against four clinically relevant microbes, i.e., C. albicans, C. glabrata, C. neoformans, and C. gatti (Table 4).
(§2) Minimum inhibitory concentrations (MIC) and minimum fungicidal concentrations (MFC) are the lowest concentrations that are required for completely inhibiting growth, and killing at least 99% of the fungi, respectively.
(§3) The above molecules were tested for antifungal activity. Minimum inhibitory concentrations (MIC) and minimum fungicidal concentrations (MFC) are the lowest concentrations that are required for completely inhibiting growth, and killing at least 99% of the fungi, respectively. As is apparent from Table 4 below, there is a general trend; i.e., increased antifungal activity is observed as the length of the hydrocarbon chain that separates the facial amphiphile from the Amphotericin B moiety is decreased.

[2] = test system: C. gatti; test: Antifungal activities, MIC/MFC; format: cell-based; conditions: C. gatti; for MIC: Table 2, 4th value in brackets, read-out: minimum inhibitory concentration (MIC)
Description: as §1, §2, §3

[3] = test system: C. glabrata; test: Antifungal activities, MIC/MFC; format: cell-based; conditions: C. glabrata; for MIC: Table 2, 2nd value in brackets, read-out: minimum inhibitory concentration (MIC)
Description: as §1, §2, §3

[4] = test system: C. neoformans; test: Antifungal activities, MIC/MFC; format: cell-based; conditions: C. neoformans; for MIC: Table 2, 3rd value in brackets, read-out: minimum inhibitory concentration (MIC)
Description: as §1, §2, §3

[5] = test system: sheep red blood cells; test: Hemolysis measurements, release of hemoglobin; format: cell-based; conditions: up to concentrations of 500 μM; 37° C. in PBS, pH 7.4
Description: Sheep Red Blood Cells, 10%, in saline (Innovative Research, Novi, Mich.), were diluted in saline (pH 7.4) to a concentration of 4%, which corresponds to 4×10^7 cells/mL. All measurements were carried out in duplicate. Solutions of Amphotericin B (Sigma-Aldrich) were prepared by adding 10 μL of a DMSO solution containing a given concentration of the antibiotic (i.e., ranging from 0.2 mM to 50 mM) to 490 μL of PBS. After the resulting solution was vortex mixed for 30 seconds (s) it was incubated at 37° C. for 15 min. The resulting solution of antibiotic (500 μL) was then mixed with 500 μL of the 4% erythrocyte dispersion at 37° C. in a 1 mL plastic centrifuge vial to give a dispersion that was vortex mixed at slow rate for 5 s. After 1 h of incubation at 37° C., all samples were centrifuged (1500 g, Eppendorf centrifuge 5415C, 5000 rpm) at rt for 5 min. The supernatant (˜0.7 mL) from each plastic vial was carefully separated from sediment using a disposable glass pipette and quickly transferred to test tube. A volume of 50 μL of this supernatant was then transferred to a UV cell containing 500 μL of PBS that was maintained at 37° C. The UV spectrum was then scanned (450-650 nm) and the absorbance at 575 nm used to determine the extent of hemolysis. The extent of 0% and 100% of hemolysis was obtained from A575 values of experiments that were run in absence of AmphB (control, [A575,]o) and in presence, 100 μM AmphB ([A575]max), respectively.

[6] = test system: Cryptococcus neoformans; test: Cryptococcosis mouse model, brain and lung tissue burden; format: in vivo, mice; conditions: after intravenous administration
Description: Cryptococcosis mice are infected via tail vein injection of 5×10^4 C. neoformans cells. Inocula are verified by quantitative culture. Animals are identified by temporary ink marking, assigned to groups of 10 mice. Test compounds will be dosed starting on the day of infection. Initial studies will employ i.v., i.p. or oral (gavage) dosing (depending on the compound and the vehicle). Antifungal compounds are given for a period of 7 days. […] On day 8, the lung and brain are evaluated by quantitative culture per gram of tissue, by weighing organs and culturing serially diluted homogenates. These tissue burden studies permit detection of drug efficacy that may not be evident by using a survival endpoint.
The mice were then sacrificed 7 days later for quantitative culture of brain and lung, with cryptococcal cells per gram tissue being expressed as logarithmic values (log 10). Mean values for each group were compared using the t-test.

Q: Which MIC [1] does the source give for CC1OC(O[C@H]2/C=C/C=C/C=C/C=C/C=C/C=C/C=C/[C@H](C)[C@@H](O)[C@@H](C)[C@H](C)OC(=O)C[C@H](O)C[C@H](O)CC[C@@H](O)[C@H](O)C[C@H](O)C[C@]3(O)C[C@H](O)[C@@H](C(=O)NCCCCCCCC(=O)N(CCCCNC(=O)CC[C@@H](C)C4CCC5C6C(OC(=O)NCCCCN)CC7CC(OC(=O)NCCCCN)CCC7(C)C6CC(OC(=O)NCCCCN)C54C)CCCNC(=O)CC[C@@H](C)C4CCC5C6C(OC(=O)NCCCCN)CC7CC(OC(=O)NCCCCN)CCC7(C)C6CC(OC(=O)NCCCCN)C54C)[C@H](C2)O3)C(O)C(N)C1O (stereo partly drawn) [VJ-1147] here?
A: 8 µM (≈ 21.3 µg/mL)

Q: And the MIC [2]?
A: 8 µM (≈ 21.3 µg/mL)

Q: What about the MIC [3] of the same compound?
A: 16 µM (≈ 42.5 µg/mL)

Q: What about the MIC [4] of the same compound?
A: 8 µM (≈ 21.3 µg/mL)

Q: What does the source list for CC1OC(O[C@H]2/C=C/C=C/C=C/C=C/C=C/C=C/C=C/[C@H](C)[C@@H](O)[C@@H](C)[C@H](C)OC(=O)C[C@H](O)C[C@H](O)CC[C@@H](O)[C@H](O)C[C@H](O)C[C@]3(O)C[C@H](O)[C@@H](C(=O)NCCCCNC(=O)C(CCCCNC(=O)CC[C@@H](C)C4CCC5C6C(O)CC7CC(OC(=O)NCC(O)C(O)C(O)C(O)CO)CCC7(C)C6CC(O)C54C)NC(=O)CC[C@@H](C)C4CCC5C6C(O)CC7CC(OC(=O)NCC(O)C(O)C(O)C(O)CO)CCC7(C)C6CC(O)C54C)[C@H](C2)O3)C(O)C(N)C1O (stereo partly drawn) [YM-13]?
A: MIC [1]: 8 µM (≈ 18.5 µg/mL); MIC [2]: 4 µM (≈ 9.27 µg/mL); MIC [3]: 8 µM (≈ 18.5 µg/mL); MIC [4]: 2 µM (≈ 4.64 µg/mL)

Q: Which results are given for CC1OC(O[C@H]2/C=C/C=C/C=C/C=C/C=C/C=C/C=C/[C@H](C)[C@@H](O)[C@@H](C)[C@H](C)OC(=O)C[C@H](O)C[C@H](O)CC[C@@H](O)[C@H](O)C[C@H](O)C[C@]3(O)C[C@H](O)[C@@H](C(=O)NCCCCNC(=O)C(CCCCNC(=O)CC[C@@H](C)C4CCC5C6C(O)CC7CC(O)CCC7(C)C6CC(O)C54C)NC(=O)CC[C@@H](C)C4CCC5C6C(O)CC7CC(O)CCC7(C)C6CC(O)C54C)[C@H](C2)O3)C(O)C(N)C1O (stereo partly drawn) [YM-15]?
A: MIC ([1]; Candida albicans): > 16 µM; MIC [2]: 4 µM (≈ 7.61 µg/mL); MIC ([3]; Nakaseomyces glabratus): > 16 µM; MIC ([4]; Cryptococcus neoformans): > 16 µM

Q: Which results are given for CC1OC(O[C@H]2/C=C/C=C/C=C/C=C/C=C/C=C/C=C/[C@H](C)[C@@H](O)[C@@H](C)[C@H](C)OC(=O)C[C@H](O)C[C@H](O)CC[C@@H](O)[C@H](O)C[C@H](O)C[C@]3(O)C[C@H](O)[C@@H](C(=O)NCCCCNC(=O)C(CCCCNC(=O)CC[C@@H](C)C4CCC5C6C(O)CC7CC(OC(=O)NCCCCN)CCC7(C)C6CC(O)C54C)NC(=O)CC[C@@H](C)C4CCC5C6C(O)CC7CC(OC(=O)NCCCCN)CCC7(C)C6CC(O)C54C)[C@H](C2)O3)C(O)C(N)C1O (stereo partly drawn) [YM-18]?
A: MIC [1]: 2 µM (≈ 4.26 µg/mL); MIC [2]: 2 µM (≈ 4.26 µg/mL); MIC [3]: 16 µM (≈ 34.1 µg/mL); MIC [4]: 2 µM (≈ 4.26 µg/mL)

Q: Which results are given for CC1OC(O[C@H]2/C=C/C=C/C=C/C=C/C=C/C=C/C=C/[C@H](C)[C@@H](O)[C@@H](C)[C@H](C)OC(=O)C[C@H](O)C[C@H](O)CC[C@@H](O)[C@H](O)C[C@H](O)C[C@]3(O)C[C@H](O)[C@@H](C(=O)NCCCCNC(=O)C(CCCCNC(=O)CC[C@@H](C)C4CCC5C6C(O)CC7CC(OC(=O)NCCN(C)C)CCC7(C)C6CC(O)C54C)NC(=O)CC[C@@H](C)C4CCC5C6C(O)CC7CC(OC(=O)NCCN(C)C)CCC7(C)C6CC(O)C54C)[C@H](C2)O3)C(O)C(N)C1O (stereo partly drawn) [YM-19]?
A: MIC [1]: 4 µM (≈ 8.53 µg/mL); MIC [2]: 2 µM (≈ 4.26 µg/mL); MIC [3]: 32 µM (≈ 68.2 µg/mL); MIC [4]: 2 µM (≈ 4.26 µg/mL)

Q: For CC1OC(O[C@H]2/C=C/C=C/C=C/C=C/C=C/C=C/C=C/[C@H](C)[C@@H](O)[C@@H](C)[C@H](C)OC(=O)C[C@H](O)C[C@H](O)CC[C@@H](O)[C@H](O)C[C@H](O)C[C@]3(O)C[C@H](O)[C@@H](C(=O)NCCOCCOCCC(=O)N(CCCCNC(=O)CC[C@@H](C)C4CCC5C6C(O)CC7CC(O)CCC7(C)C6CC(O)C54C)CCCNC(=O)CC[C@@H](C)C4CCC5C6C(O)CC7CC(O)CCC7(C)C6CC(O)C54C)[C@H](C2)O3)C(O)C(N)C1O (stereo partly drawn) [YM-42], which MIC ([1]; Candida albicans) is on record?
A: > 16 µM

Q: And the MIC [2]?
A: > 16 µM

Q: And the MIC ([3]; Nakaseomyces glabratus)?
A: > 16 µM

Q: What about the MIC ([4]; Cryptococcus neoformans) of the same compound?
A: > 16 µM

Q: For CC1OC(O[C@H]2/C=C/C=C/C=C/C=C/C=C/C=C/C=C/[C@H](C)[C@@H](O)[C@@H](C)[C@H](C)OC(=O)C[C@H](O)C[C@H](O)CC[C@@H](O)[C@H](O)C[C@H](O)C[C@]3(O)C[C@H](O)[C@@H](C(=O)NCCCCCCNC(=O)CC[C@@H](C)C4CCC5C6C(O)CC7CC(O)CCC7(C)C6CC(O)C54C)[C@H](C2)O3)C(O)C(N)C1O (stereo partly drawn) [YYM-72], which hemolytic activity [5] is on record?
A: negligible hemolytic activity

Q: Which results are given for CC1OC(O[C@H]2/C=C/C=C/C=C/C=C/C=C/C=C/C=C/[C@H](C)[C@@H](O)[C@@H](C)[C@H](C)OC(=O)C[C@H](O)C[C@H](O)CC[C@@H](O)[C@H](O)C[C@H](O)C[C@]3(O)C[C@H](O)[C@@H](C(=O)NCCSSCCC(=O)N(CCCCNC(=O)C(CCCCNC(=O)CC[C@@H](C)C4CCC5C6C(OS(=O)(=O)[O-])CC7CC(OS(=O)(=O)[O-])CCC7(C)C6CC(OS(=O)(=O)[O-])C54C)NC(=O)CC[C@@H](C)C4CCC5C6C(OS(=O)(=O)[O-])CC7CC(OS(=O)(=O)[O-])CCC7(C)C6CC(OS(=O)(=O)[O-])C54C)CCCNC(=O)C(CCCCNC(=O)CC[C@@H](C)C4CCC5C6C(OS(=O)(=O)[O-])CC7CC(OS(=O)(=O)[O-])CCC7(C)C6CC(OS(=O)(=O)[O-])C54C)NC(=O)CC[C@@H](C)C4CCC5C6C(OS(=O)(=O)[O-])CC7CC(OS(=O)(=O)[O-])CCC7(C)C6CC(OS(=O)(=O)[O-])C54C)[C@H](C2)O3)C(O)C(N)C1O.[Na+].[Na+].[Na+].[Na+].[Na+].[Na+].[Na+].[Na+].[Na+].[Na+].[Na+].[Na+] (stereo partly drawn) [compound 10]?
A: activity in brain and lung tissue [6]: negligible activity; minimum inhibitory concentration (MIC in μM) relative to AmphB ([1]; 1st value in brackets): > 426 µM; minimum inhibitory concentration (MIC in μM) relative to AmphB ([2]; 4th value in brackets): > 426 µM; minimum inhibitory concentration (MIC in μM) relative to AmphB ([3]; 2nd value in brackets): > 426 µM; minimum inhibitory concentration (MIC in μM) relative to AmphB ([4]; 3rd value in brackets): > 426 µM

— patent US10322187B2, “Reduced toxicity molecular conjugates of anti-fungal agents” (Lehigh University, priority 2015, dated 2019)
